From patent publication US6602825B1, “1-Aryl-1,3,5-triazine-4-thione-2,6-diones, production thereof and use thereof as herbicides” (BASF Aktiengesellschaft, priority 2001, dated 2003)

| Compound | melting point [°C] |
| --- | --- |
| Cn1c(=S)n(C)c(=O)n(-c2cc(C(=O)O)c(Cl)cc2F)c1=O [Compound No. 28, 2-Chloro-5-(3,5-dimethyl-2,6-dioxo-4-thioxo-[1,3,5]triazinan-1-yl)-4-fluorobenzoic acid] | 225 to 229 |
| CCc1nc2c(Cl)cc(F)c(-n3c(=O)n(C)c(=S)n(C)c3=O)c2o1 [Compound No. 66, 3-(4-chloro-2-ethyl-6-fluorobenzoxazol-7-yl)-1,5-dimethyl-6-thioxo-[1,3,5]triazinane-2,4-dione] | 156 to 159 |
| Cn1c(=S)n(C)c(=O)n(-c2c(F)cc(Cl)c3ncoc23)c1=O [Compound No. 65, 3-(4-chloro-6-fluorobenzoxazol-7-yl)-1,5-dimethyl-6-thioxo-[1,3,5]triazinane-2,4-dione] | 209 to 211 |
